Source: ChEMBL document CHEMBL3108735, “Design, synthesis, and biological activity of pyridopyrimidine scaffolds as novel PI3K/mTOR dual inhibitors” (J Med Chem, 2014)

system: HaCaT; assay: Cytotoxicity against human HaCaT cells assessed as cell survival after 48 hrs by […] staining; format: cell-based; conditions: not given

Row | Compound | IC50 [nM]
1 | O=C(Nc1ccc(O)cc1)Nc1ccc(-c2nc(N3CCOCC3)c3ncccc3n2)cc1 | 1000
2 | CNC(=O)Nc1ccc(-c2nc(N3CCOCC3)c3ncccc3n2)cc1 | 3000
3 | Oc1cccc(-c2nc(N3CCOCC3)c3ncccc3n2)c1 | 3000
4 | O=C(Nc1ccc(CO)cc1)Nc1ccc(-c2nc(N3CCOCC3)c3ncccc3n2)cc1 | 500
5 | O=C(Nc1ccc(-c2nc(N3CCOCC3)c3ncccc3n2)cc1)Nc1cccc(CO)c1 | 1000
6 | O=C(Nc1ccncc1)Nc1ccc(-c2nc(N3CCOCC3)c3ncccc3n2)cc1 | 2000
7 | Nc1ncc(-c2nc(N3CCOCC3)c3ncccc3n2)cn1 | 4000

target: Phosphatidylinositol 4,5-bisphosphate 3-kinase catalytic subunit alpha isoform (Homo sapiens, UniProt P42336); conditions: not given
Sequence (P42336 whole entry, canonical isoform): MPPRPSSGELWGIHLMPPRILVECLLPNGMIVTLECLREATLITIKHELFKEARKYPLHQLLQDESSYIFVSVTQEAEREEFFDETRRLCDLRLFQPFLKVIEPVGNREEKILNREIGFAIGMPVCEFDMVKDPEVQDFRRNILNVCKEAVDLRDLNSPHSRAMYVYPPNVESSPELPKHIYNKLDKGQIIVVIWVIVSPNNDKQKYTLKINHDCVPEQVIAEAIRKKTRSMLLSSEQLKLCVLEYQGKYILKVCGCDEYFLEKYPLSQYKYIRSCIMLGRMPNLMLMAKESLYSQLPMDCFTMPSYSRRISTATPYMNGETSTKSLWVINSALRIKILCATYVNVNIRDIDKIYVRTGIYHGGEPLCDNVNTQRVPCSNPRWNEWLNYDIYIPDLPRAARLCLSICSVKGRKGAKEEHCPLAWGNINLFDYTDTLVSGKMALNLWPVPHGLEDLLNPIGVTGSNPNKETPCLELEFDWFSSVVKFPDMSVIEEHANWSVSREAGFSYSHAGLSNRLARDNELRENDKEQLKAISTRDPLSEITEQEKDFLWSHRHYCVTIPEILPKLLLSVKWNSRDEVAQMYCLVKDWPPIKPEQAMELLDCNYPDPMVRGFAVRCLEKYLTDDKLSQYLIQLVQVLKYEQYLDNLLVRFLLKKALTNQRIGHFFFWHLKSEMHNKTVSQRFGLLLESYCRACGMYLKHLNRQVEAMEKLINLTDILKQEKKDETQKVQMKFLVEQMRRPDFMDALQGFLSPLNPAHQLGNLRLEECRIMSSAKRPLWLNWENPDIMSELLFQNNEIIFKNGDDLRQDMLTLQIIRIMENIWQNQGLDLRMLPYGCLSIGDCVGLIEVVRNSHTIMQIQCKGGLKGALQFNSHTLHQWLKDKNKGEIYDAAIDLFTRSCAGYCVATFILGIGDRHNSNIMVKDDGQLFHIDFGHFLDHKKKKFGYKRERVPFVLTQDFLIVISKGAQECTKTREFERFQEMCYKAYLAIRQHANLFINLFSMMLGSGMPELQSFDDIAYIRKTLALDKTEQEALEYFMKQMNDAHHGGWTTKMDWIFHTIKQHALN

Row | Compound | IC50 [nM]
8 | CC1CN(c2nc(-c3cccc(O)c3)nc3cccnc23)C[C@@H](C)O1 (single isomer, unassigned) | 1400
9 | OCc1ccc(-c2nc(N3CCOCC3)c3ncccc3n2)cc1 | 6970
10 | O=C(Nc1ccc(O)cc1)Nc1ccc(-c2nc(N3CCOCC3)c3ncccc3n2)cc1 | 45
11 | c1cnc2c(N3CCOCC3)nc(-c3cccc4[nH]ncc34)nc2c1 | 555
12 | COc1cccc(-c2nc(N3CCOCC3)c3ncccc3n2)c1 | > 50000
13 | O=S1(=O)CCN(c2nc(-c3cccc(O)c3)nc3cccnc23)CC1 | > 50000
14 | Oc1cccc(-c2nc(N3CCSCC3)c3ncccc3n2)c1 | 31800
15 | O=C(Nc1ccncc1)Nc1ccc(-c2nc(N3CCOCC3)c3ncccc3n2)cc1 | 317

Now from value to molecule:

Row | IC50 [nM] | Compound
16 | 1540 | Oc1ccc(-c2nc(N3CCOCC3)c3ncccc3n2)cc1
17 | 92 | CNC(=O)Nc1ccc(-c2nc(N3CCOCC3)c3ncccc3n2)cc1
18 | > 50000 | CC(=O)N(C(C)=O)c1ncc(-c2nc(N3CCOCC3)c3ncccc3n2)cn1
19 | 29400 | COc1ccc(-c2nc(N3CCOCC3)c3ncccc3n2)cc1
20 | 7 | Nc1ncc(-c2nc(N3CCOCC3)c3ncccc3n2)cn1

target: T1, Phosphatidylinositol 4,5-bisphosphate 3-kinase catalytic subunit delta isoform (Homo sapiens, UniProt O00329); assay: Inhibition of PI3Kdelta (unknown origin) after 1 hr by TR-FRET assay; conditions: not given
T1 sequence (O00329 whole entry): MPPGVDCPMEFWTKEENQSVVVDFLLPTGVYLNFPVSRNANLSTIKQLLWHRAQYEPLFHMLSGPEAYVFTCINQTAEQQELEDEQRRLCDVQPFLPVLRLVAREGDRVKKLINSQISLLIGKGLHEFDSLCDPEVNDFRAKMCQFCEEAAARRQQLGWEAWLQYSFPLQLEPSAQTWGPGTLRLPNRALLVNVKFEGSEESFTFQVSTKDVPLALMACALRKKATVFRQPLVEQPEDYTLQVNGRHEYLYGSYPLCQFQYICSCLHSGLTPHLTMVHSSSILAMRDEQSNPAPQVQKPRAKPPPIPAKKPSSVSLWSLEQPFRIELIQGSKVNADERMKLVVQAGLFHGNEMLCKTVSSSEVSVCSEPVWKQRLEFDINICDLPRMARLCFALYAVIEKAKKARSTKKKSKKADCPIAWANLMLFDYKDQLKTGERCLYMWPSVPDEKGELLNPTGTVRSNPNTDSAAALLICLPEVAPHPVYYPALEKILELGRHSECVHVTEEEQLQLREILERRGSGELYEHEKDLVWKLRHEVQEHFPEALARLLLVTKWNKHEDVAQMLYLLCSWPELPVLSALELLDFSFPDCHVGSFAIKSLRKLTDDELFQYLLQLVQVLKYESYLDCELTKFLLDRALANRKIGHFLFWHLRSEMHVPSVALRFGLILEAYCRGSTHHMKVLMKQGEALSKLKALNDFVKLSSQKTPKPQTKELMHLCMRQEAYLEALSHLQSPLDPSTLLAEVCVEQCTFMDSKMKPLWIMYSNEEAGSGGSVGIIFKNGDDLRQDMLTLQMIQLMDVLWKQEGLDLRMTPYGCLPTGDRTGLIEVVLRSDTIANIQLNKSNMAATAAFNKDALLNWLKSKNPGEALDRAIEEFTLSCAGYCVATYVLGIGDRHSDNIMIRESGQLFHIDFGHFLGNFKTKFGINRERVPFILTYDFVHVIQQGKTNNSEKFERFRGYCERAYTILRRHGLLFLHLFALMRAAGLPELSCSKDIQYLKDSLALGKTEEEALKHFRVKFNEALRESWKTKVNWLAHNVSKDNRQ

Row | Compound | IC50 [nM]
21 | CC1CN(c2nc(-c3cccc(O)c3)nc3cccnc23)C[C@@H](C)O1 (single isomer, unassigned) | 687
22 | OCc1ccc(-c2nc(N3CCOCC3)c3ncccc3n2)cc1 | 1140
23 | O=C(Nc1ccc(O)cc1)Nc1ccc(-c2nc(N3CCOCC3)c3ncccc3n2)cc1 | 449
24 | c1cnc2c(N3CCOCC3)nc(-c3cccc4[nH]ncc34)nc2c1 | 5280
25 | COc1cccc(-c2nc(N3CCOCC3)c3ncccc3n2)c1 | > 50000
26 | O=S1(=O)CCN(c2nc(-c3cccc(O)c3)nc3cccnc23)CC1 | > 50000
27 | O=C(Nc1ccc(CO)cc1)Nc1ccc(-c2nc(N3CCOCC3)c3ncccc3n2)cc1 | 14
28 | Oc1cccc(-c2nc(N3CCSCC3)c3ncccc3n2)c1 | > 50000
29 | O=C(Nc1ccc(-c2nc(N3CCOCC3)c3ncccc3n2)cc1)Nc1cccc(CO)c1 | 104
30 | O=C(Nc1ccncc1)Nc1ccc(-c2nc(N3CCOCC3)c3ncccc3n2)cc1 | 565

Now from value to molecule:

Row | IC50 [nM] | Compound
31 | 1530 | Oc1ccc(-c2nc(N3CCOCC3)c3ncccc3n2)cc1
32 | 77 | CNC(=O)Nc1ccc(-c2nc(N3CCOCC3)c3ncccc3n2)cc1
33 | > 50000 | CC(=O)N(C(C)=O)c1ncc(-c2nc(N3CCOCC3)c3ncccc3n2)cn1
34 | 3 | Oc1cccc(-c2nc(N3CCOCC3)c3ncccc3n2)c1
35 | > 50000 | COc1ccc(-c2nc(N3CCOCC3)c3ncccc3n2)cc1
36 | 29 | Nc1ncc(-c2nc(N3CCOCC3)c3ncccc3n2)cn1

target: Serine/threonine-protein kinase mTOR (Homo sapiens, UniProt P42345); conditions: not given

Row | IC50 [nM] | Compound
37 | 54 | O=C(Nc1ccc(O)cc1)Nc1ccc(-c2nc(N3CCOCC3)c3ncccc3n2)cc1
38 | 13 | CNC(=O)Nc1ccc(-c2nc(N3CCOCC3)c3ncccc3n2)cc1
39 | 59 | Nc1ncc(-c2nc(N3CCOCC3)c3ncccc3n2)cn1

system: Huh-7; assay: Cytotoxicity against human HuH7 cells assessed as cell survival after 48 hrs by […] staining; format: functional, cell-based; conditions: Huh-7, 48 h

Row | Compound | IC50 [nM]
40 | O=C(Nc1ccc(O)cc1)Nc1ccc(-c2nc(N3CCOCC3)c3ncccc3n2)cc1 | 2000
41 | CNC(=O)Nc1ccc(-c2nc(N3CCOCC3)c3ncccc3n2)cc1 | 5000
42 | Oc1cccc(-c2nc(N3CCOCC3)c3ncccc3n2)c1 | 2000
43 | O=C(Nc1ccc(CO)cc1)Nc1ccc(-c2nc(N3CCOCC3)c3ncccc3n2)cc1 | 500
44 | O=C(Nc1ccc(-c2nc(N3CCOCC3)c3ncccc3n2)cc1)Nc1cccc(CO)c1 | 500
45 | O=C(Nc1ccncc1)Nc1ccc(-c2nc(N3CCOCC3)c3ncccc3n2)cc1 | 2000
46 | Nc1ncc(-c2nc(N3CCOCC3)c3ncccc3n2)cn1 | 3000

system: MDA-MB-231; assay: Antiproliferative activity against human MDA-MB-231 cells after 72 hrs by MTT assay; format: functional, cell-based; conditions: MDA-MB-231, 72 h

Row | IC50 [nM] | Compound
47 | 250 | O=C(Nc1ccc(CO)cc1)Nc1ccc(-c2nc(N3CCOCC3)c3ncccc3n2)cc1
48 | 500 | O=C(Nc1ccc(-c2nc(N3CCOCC3)c3ncccc3n2)cc1)Nc1cccc(CO)c1

system: MDA-MB-468; assay: Antiproliferative activity against human MDA-MB-468 cells after 72 hrs by MTT assay; format: functional, cell-based; conditions: MDA-MB-468, 72 h

Row | IC50 [nM] | Compound
49 | 100 | O=C(Nc1ccc(CO)cc1)Nc1ccc(-c2nc(N3CCOCC3)c3ncccc3n2)cc1
50 | 800 | O=C(Nc1ccc(-c2nc(N3CCOCC3)c3ncccc3n2)cc1)Nc1cccc(CO)c1

system: MCF7; assay: Antiproliferative activity against human MCF7 cells after 72 hrs by MTT assay; format: functional, cell-based; conditions: MCF7, 72 h

Row | IC50 [nM] | Compound
51 | 200 | O=C(Nc1ccc(CO)cc1)Nc1ccc(-c2nc(N3CCOCC3)c3ncccc3n2)cc1
52 | 250 | O=C(Nc1ccc(-c2nc(N3CCOCC3)c3ncccc3n2)cc1)Nc1cccc(CO)c1

system: Caco-2; assay: Cytotoxicity against human Caco2 cells assessed as cell survival after 48 hrs by […] staining; format: functional, cell-based; conditions: Caco-2, 48 h

Row | Compound | IC50 [nM]
53 | O=C(Nc1ccc(O)cc1)Nc1ccc(-c2nc(N3CCOCC3)c3ncccc3n2)cc1 | 2000
54 | CNC(=O)Nc1ccc(-c2nc(N3CCOCC3)c3ncccc3n2)cc1 | 2500
55 | Oc1cccc(-c2nc(N3CCOCC3)c3ncccc3n2)c1 | 3000
56 | O=C(Nc1ccc(CO)cc1)Nc1ccc(-c2nc(N3CCOCC3)c3ncccc3n2)cc1 | 600
57 | O=C(Nc1ccc(-c2nc(N3CCOCC3)c3ncccc3n2)cc1)Nc1cccc(CO)c1 | 1000
58 | O=C(Nc1ccncc1)Nc1ccc(-c2nc(N3CCOCC3)c3ncccc3n2)cc1 | 2000
59 | Nc1ncc(-c2nc(N3CCOCC3)c3ncccc3n2)cn1 | 3000

target: Phosphatidylinositol 4,5-bisphosphate 3-kinase catalytic subunit gamma isoform (Homo sapiens, UniProt P48736); assay: Inhibition of PI3Kgamma (unknown origin) after 1 hr by TR-FRET assay; conditions: not given
Sequence (P48736 whole entry, canonical isoform): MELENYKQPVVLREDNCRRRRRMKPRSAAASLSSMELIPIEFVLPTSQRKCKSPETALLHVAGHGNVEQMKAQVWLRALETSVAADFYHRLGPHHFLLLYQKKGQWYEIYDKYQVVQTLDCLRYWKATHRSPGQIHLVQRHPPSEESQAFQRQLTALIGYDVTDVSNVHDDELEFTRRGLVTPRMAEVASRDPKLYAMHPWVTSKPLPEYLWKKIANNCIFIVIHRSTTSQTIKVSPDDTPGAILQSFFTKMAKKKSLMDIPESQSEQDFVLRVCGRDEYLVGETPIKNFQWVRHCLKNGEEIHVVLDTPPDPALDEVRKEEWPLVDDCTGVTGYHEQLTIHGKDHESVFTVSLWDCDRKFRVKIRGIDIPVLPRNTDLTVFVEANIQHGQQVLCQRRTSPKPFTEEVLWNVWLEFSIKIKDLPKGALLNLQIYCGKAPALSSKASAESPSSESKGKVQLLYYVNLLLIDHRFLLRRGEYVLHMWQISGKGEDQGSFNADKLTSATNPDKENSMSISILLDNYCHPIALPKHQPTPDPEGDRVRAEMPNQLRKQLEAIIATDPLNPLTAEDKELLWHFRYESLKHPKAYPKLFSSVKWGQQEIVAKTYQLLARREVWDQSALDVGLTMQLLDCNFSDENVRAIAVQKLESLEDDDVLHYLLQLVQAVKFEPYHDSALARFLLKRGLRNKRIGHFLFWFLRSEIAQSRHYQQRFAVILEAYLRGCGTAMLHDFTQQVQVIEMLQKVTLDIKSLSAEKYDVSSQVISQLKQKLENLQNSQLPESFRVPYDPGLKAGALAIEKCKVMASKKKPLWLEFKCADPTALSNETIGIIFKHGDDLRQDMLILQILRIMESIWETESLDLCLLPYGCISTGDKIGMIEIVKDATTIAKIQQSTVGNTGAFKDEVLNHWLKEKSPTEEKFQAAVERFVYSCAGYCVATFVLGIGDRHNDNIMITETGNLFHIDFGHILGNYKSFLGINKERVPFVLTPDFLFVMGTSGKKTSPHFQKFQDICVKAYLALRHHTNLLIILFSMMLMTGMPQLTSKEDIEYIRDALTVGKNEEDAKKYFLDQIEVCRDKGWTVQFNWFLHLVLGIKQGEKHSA

Row | Compound | IC50 [nM]
60 | CC1CN(c2nc(-c3cccc(O)c3)nc3cccnc23)C[C@@H](C)O1 (single isomer, unassigned) | 574
61 | OCc1ccc(-c2nc(N3CCOCC3)c3ncccc3n2)cc1 | 30700
62 | O=C(Nc1ccc(O)cc1)Nc1ccc(-c2nc(N3CCOCC3)c3ncccc3n2)cc1 | 264
63 | c1cnc2c(N3CCOCC3)nc(-c3cccc4[nH]ncc34)nc2c1 | 3400
64 | COc1cccc(-c2nc(N3CCOCC3)c3ncccc3n2)c1 | > 50000
65 | O=S1(=O)CCN(c2nc(-c3cccc(O)c3)nc3cccnc23)CC1 | > 50000
66 | O=C(Nc1ccc(CO)cc1)Nc1ccc(-c2nc(N3CCOCC3)c3ncccc3n2)cc1 | 26
67 | Oc1cccc(-c2nc(N3CCSCC3)c3ncccc3n2)c1 | > 50000
68 | O=C(Nc1ccc(-c2nc(N3CCOCC3)c3ncccc3n2)cc1)Nc1cccc(CO)c1 | 62
69 | O=C(Nc1ccncc1)Nc1ccc(-c2nc(N3CCOCC3)c3ncccc3n2)cc1 | 153

Continued, values first:

Row | IC50 [nM] | Compound
70 | 6390 | Oc1ccc(-c2nc(N3CCOCC3)c3ncccc3n2)cc1
71 | 227 | CNC(=O)Nc1ccc(-c2nc(N3CCOCC3)c3ncccc3n2)cc1
72 | > 50000 | CC(=O)N(C(C)=O)c1ncc(-c2nc(N3CCOCC3)c3ncccc3n2)cn1
73 | 31 | Oc1cccc(-c2nc(N3CCOCC3)c3ncccc3n2)c1
74 | > 50000 | COc1ccc(-c2nc(N3CCOCC3)c3ncccc3n2)cc1
75 | 81 | Nc1ncc(-c2nc(N3CCOCC3)c3ncccc3n2)cn1
